How the values were obtained:
HeLa cells = assay: Cell toxicity in HeLa cells at 24 h; type: cell-based; details: HeLa at 100 μM
Procedure: (§1) d) In Vitro Determination of Cell Toxicity in HepG2, CHO-K1 and HeLa Cells at 24 h
(§2) Compounds were dissolved in DMSO to achieve an initial concentration of 100 mM. Serial dilutions were made from this stock solution in DMSO to achieve a range of concentrations from 50 to 0.25 mM. The stock solution and serial dilutions were then diluted 1:100 with the respective cell culture medium. In the case of CHO-K1 cells, concentrations at 1000, 500, 250, 100, 50, 25, 10, 5 and 2.5 μM were prepared to assess IC50, whereas in the case of HepG2 cells, final concentrations at 1000, 100, 10 and 1 μM final were assayed in order to calculate the percentage of cell. The final DMSO concentration in all wells was 1% v/v. Cell lines were both incubated with test compounds for 24 hours. Relative cell viability was determined spectro-photometrically at 490 nm following the addition of the MTS dye and further one-hour incubation. Tamoxifen was used as the positive control.
An analogous protocol was used to determine the cell toxicity in HeLa cells at 24 h.

[1] = Cell toxicity (MTS cell viability) in CHO-K1 cells at 24 h; type: cell-based; details: Chinese hamster
Procedure: as §1
(§3) HepG2 (human hepatocellular carcinoma cells) and CHO-K1 (Chinese hamster ovary cells) were both obtained from the American Type Culture Collection (ATCC). HepG2 were cultured in Minimum Essential Medium (MEM) containing Earl's salts solution with 1.87 mM Glutamax® and supplemented with 1 mM sodium pyruvate, 0.1 mM non-essential amino acids, 100000 U/L penicillin, 100000 μg/L streptomycin and 10% Foetal Bovine Serum. CHO-K1 were maintained in Ham's F-12 medium containing 1 mM Glutamax® and supplemented with 1 mM L-glutamine, 100000 U/L penicillin, 100000 μg/L streptomycin and 10% Foetal Bovine Serum. Promega CellTiter 96® Aqueous One Solution Cell Viability Assay, contains the tetrazolium salt (MTS) that dehydrogenase enzymes found in metabolically active cells turn into the aqueous soluble formazan product. The quantity of formazan product is proportional to the number of living cells in culture.
Compounds were dissolved in DMSO to achieve an initial concentration of 100 mM. Serial dilutions were made from this stock solution in DMSO to achieve a range of concentrations from 50 to 0.25 mM. […] Relative cell viability was determined spectro-photometrically at 490 nm following the addition of the MTS dye and further one-hour incubation. […]

HepG2 cells = assay: Cell toxicity (MTS cell viability) in HepG2 cells at 24 h; type: cell-based, human; details: HepG2 at 100 μM
Procedure: as §1, §3, §2

[2] = tested on: α1 subunit of the GABAA receptor; assay: Ligand-binding assay, competitive with radiolabeled flumazenil, cerebellum membranes; details: 1 nM radiolabeled flumazenil, rat cerebellum membranes; for % inhib 10^−5M: 10^−5M compound; for % inhib 10^−7M: 10^−7M compound
Procedure: (§4) a) Ligand-Binding Assays. Determination of the Affinity of Test Compounds for α1- and α2-GABAA Receptor
(§5) Male Sprague-Dawley rats weighing 200-250 g at the time of experiment were used. After decapitation of the animal, the cerebellum (tissue that mostly contains α1-GABAA receptor) and spinal cord (tissue that mostly contains α2-GABAA receptor) were removed. The membranes were prepared according to the method by J. Lameh et al. (Prog. Neuro-Psychopharmacol. Biol. Psychiatry, 24, 979-991, 2000) and H. Noguchi et al. (Eur. J. Pharm., 434, 21-28, 2002) with slight modifications. Once the tissues weighed, they were suspended in 50 mM Tris.HCl (pH 7.4), 1:40 (v/v), or sucrose 0.32 M in the case of spinal cord, homogenized and then centrifuged at 20000 g for 10 min at 7° C. The resulting pellet was resuspended under the same conditions and centrifuged again. The pellet was finally resuspended on a minimum volume and kept at −80° C. overnight. On the next day, the process was repeated until the final pellet was resuspended at a ratio of 1:10 (v/v) in the case of cerebellum and at a ratio of 1:5 (v/v) in the case of spinal cord.
Affinity was determined by competitive tests using radiolabeled flumazenil as ligand. The tests were performed according to the methods described by S. Arbilla et al. (Eur. J. Pharmacol., 130, 257-263, 1986); and Y. Wu et al. (Eur. J. Pharmacol., 278,125-132, 1995) using 96-well microtiter plates. The membranes containing the study receptors, flumazenil (radiolabeling at a final concentration of 1 nM) and ascending concentrations of test compounds (in a total volume of 230 μL in 50 mM [ph 7.4] Tris.HCl buffer) were incubated. Simultaneously, the membranes were only incubated with the radiolabeled flumazenil (total binding, 100%) and in the presence of an elevated concentration of unradiolabeled flumazenil (non-specific binding, % estimation of radiolabeled ligand). The reactions started on adding the radiolabeled ligand followed by incubation for 60 minutes at 4° C. At the end of the incubation period, 200 μL of reaction were transferred to a multiscreen plate (Millipore) and filtered using a vacuum manifold and then washed three times with cold test buffer. The multiscreen plates were equipped with a GF/B filter that retained the membranes containing the receptors and the radiolabeled ligand which had been bound to the receptors. After washing, the plates were left till dry. Once dried, scintillation liquid was added and left under stirring overnight. The next day the plates were counted using a Perkin-Elmer Microbeta scintillation counter.
(§6) For analysis of the results the percentage of specific binding for every concentration of test compound was calculated as follows: % specific binding=(X−N/T−N)×100 where, • X: amount of bound ligand for every concentration of compound. • T: total binding, maximum amount bound to the radiolabeled ligand. • N: non-specific binding, amount of radiolabeled ligand bound in a non-specific way irrespective of the receptor used.
(§7) Every concentration of compounds was tested in triplicate and their mean values were used to determine the experimental values of % specific binding versus the concentration of compound. Affinity data are expressed as % inhibition at 10^−5M and 10^−7M concentrations for α1 subunit and at 10^-5M for α2 subunit.

mice = assay: In vivo predictive sedation-hypnosis test (traveled distance); details: male CD1 mice; for % inhib motor activity: 98 μmol/kg ip, traveled distance over 30 min (first 5 min discarded) vs control
Procedure: b) In Vivo Determination of Predictive Sedative-Hypnotic Action
The in vivo effects of these compounds were assessed by a predictive sedation-hypnosis test in mice (D. J. Sanger et al., Eur. J. Pharmacol., 313, 35-42, 1996; and G. Griebel et al., Psychopharmacology, 146, 205-213, 1999).
Groups of 5-8 male CD1 mice, weighing 22-26 g at the time of test, were used. The test compounds were administered in single equimolecular intraperitoneal doses, suspended in 0.25% agar with one drop of Tween 80 in a volume of 10 mL/kg. Two doses were tested in each route. Control animals received the vehicle alone. Using a Smart System (Panlab, S. L., Spain) the traveled distance in cm is recorded for each mouse at 5-min intervals during a period of 30 minutes after intraperitoneal (ip) dosing. The inhibition percentage of traveled distance of treated animals versus control animals (the first 5 min were discarded) and ED50 values were calculated.

[3] = tested on: α2 subunit of the GABAA receptor; assay: Ligand-binding assay, competitive with radiolabeled flumazenil, spinal cord membranes; details: 10^−5M compound; 1 nM radiolabeled flumazenil; rat spinal cord membranes
Procedure: as §4, §5
Affinity was determined by competitive tests using radiolabeled flumazenil as ligand. The tests were performed according to the methods described by S. Arbilla et al. (Eur. J. Pharmacol., 130, 257-263, 1986); and Y. Wu et al. (Eur. J. Pharmacol., 278,125-132, 1995) using 96-well microtiter plates. The membranes containing the study receptors, flumazenil (radiolabeling at a final concentration of 1 nM) and ascending concentrations of test compounds (in a total volume of 230 μL in 50 mM [ph 7.4] Tris.HCl buffer) were incubated. Simultaneously, the membranes were only incubated with the radiolabeled flumazenil (total binding, 100%) and in the presence of an elevated concentration of unradiolabeled flumazenil (non-specific binding, % estimation of radiolabeled ligand). […] The next day the plates were counted using a Perkin-Elmer Microbeta scintillation counter.
as §6, §7

[4] = Metabolic stability in human hepatocytes cytosolic fraction; type: in vitro ADME; details: 5 μM compound, 1.0 mg/mL pooled human cytosol, 37° C.
Procedure: c) In Vitro Determination of Metabolic Stability in Human Hepatocytes Cytosolic Fraction
Compounds were dissolved in dimethyl sulfoxide to achieve an initial concentration of 10 mM. This stock solution was then diluted with solvent and buffer to obtain final assay concentration of 5 μM. Compounds were tested at a single concentration of 5 μM in duplicate incubating with 1.0 mg/mL of pooled human cytosol (obtained from Xenotech plc) at 37° C. Metabolism was assessed in the presence or absence of cofactors and measured as loss of parent compound by LC/MS analysis at 0, 60 and 120-minutes time points. Percentages of remaining parent compounds were then calculated.

SMILES	% of cell viability (HeLa cells) [%]	IC50 at 24 h [1] [µM]	% of cell viability (HepG2 cells) [%]	% of cell viability (HepG2 cells; listed as indiplon) [%]	% inhib 10^−5M [2] [%]	% inhib 10^−7M [2] [%]	% inhib motor activity (mice) [%]	% inhib 10^−5M [3] [%]	% of Parent ([4]; 60 min) [%]	% of Parent ([4]; 120 min) [%]	% of cell viability (HepG2 cells; listed as example 11) [%]	ED50 (mice; Mus musculus, ip, read-out: ED50 in inducing sedation) [µmol/kg]
CC(=O)N(C)c1cccc(-c2ccnc3c(C(=O)c4cccs4)cnn23)c1 [Example 1 of US 6399621 (indiplon), N-{3-[3-(thiophene-2-carbonyl)-pyrazolo[1,5-a]pyrimidin-7-yl]-phenyl}-N-methyl-acetamide, reference compound]	67.9	108	70	70								
CN(c1cc(-c2ccnc3c([N+](=O)[O-])cnn23)ccc1F)S(C)(=O)=O [Preparative example 5, N-{2-fluoro-5-[3-nitro-pyrazolo[1,5-a]pyrimidin-7-yl]-phenyl}-N-methyl-methanesulfonamide]					98.2	42.3	89.0	94.5				
CN(c1cc(-c2ccnc3c(C#N)cnn23)ccc1F)S(C)(=O)=O [Preparative example 6, N-{2-fluoro-5-[3-cyano-pyrazolo[1,5-a]pyrimidin-7-yl]-phenyl}-N-methyl-methanesulfonamide]					98.1	36.4	76.3	87.5	86	81		
Cc1nn2c(-c3ccc(F)c(N(C)S(C)(=O)=O)c3)ccnc2c1C#N [Preparative example 11, N-{2-fluoro-5-[3-cyano-2-methyl-pyrazolo[1,5-a]pyrimidin-7-yl]-phenyl}-N-methyl-methanesulfonamide]	83.9	186	84.5		97.7	41.8	83.8	95.0	88	82	84.5	16.9
CC(=O)N(C)c1cc(-c2ccnc3c(C(=O)c4cccs4)cnn23)ccc1C [Preparative example 13, N-{2-methyl-5-[3-(thiophene-2-carbonyl)-pyrazolo[1,5-a]pyrimidin-7-yl]-phenyl}-N-methyl-acetamide]					98.7	39.8	95.6					
COc1ccc(-c2ccnc3c(C(=O)c4cccs4)cnn23)cc1N(C)C(C)=O [Preparative example 14, N-{2-methoxy-5-[3-(thiophene-2-carbonyl)-pyrazolo[1,5-a]pyrimidin-7-yl]-phenyl}-N-methyl-acetamide]					97.3	31.9	89.6					
CCN(C(C)=O)c1cccc(-c2ccnc3c(C#N)cnn23)c1 [Zaleplon, reference compound]							84.9	77.4				

From patent US8158632B2, “Pyrazolo[1,5-a]pyrimidines, processes, uses and compositions” (priority 2006, dated 2012)
